The values that follow come from patent US20070009484A1, “Compositions and methods involving MDA-7 for the treatment of cancer” (Board of Regents, The University of Texas System, priority 2005, published 2007).

Marks after values point to notes of the source that are not given here.

In data set [1] the test system is MCF7/Her18 cells. Nature of the data set: Cell cycle and apoptosis assay (PI, Annexin V/FITC, TUNEL). It counts as cell-based, human. The source says:
(§1) All the cultures were subconfluent at the time of harvest. Harvested cells were fixed with ice-cold 80% ethanol, stained with propidium iodide (PI) (Sigma, St. Louis, Mo.), and analyzed using a flow cytometer (FCM) (EPICS XL-MCL, Coulter, Miami, Fla.) as described previously. Cells floating in the media and trypsinized adherent cells were harvested and pelleted. The collected cells were washed, and then stained with Annexin V-fluorescein isothiocyanate (FITC)/PI using an Annexin V/FITC apoptosis detection kit (BD Biosciences, Franklin Lake, N.J.). The BrdU (5-bromo-2-deoxyuridine)/terminal deoxynucleotidyl transferase (TdT)-mediated 2′-deoxyuridine 5′-triphosphate (dUTP)-biotin nick end labeling (TUNEL) assay (APO-Direct, BD Biosciences, Franklin Lake, N.J.) was performed according to the manufacturer's protocol. Briefly, paraformaldehyde-fixed cells were washed and incubated with staining solution (10 μl of TdT reaction buffer, 0.75 μl of TdT enzyme, and 8 μl of FITC-dUTP) overnight. The following day, cells were rinsed and resuspended in 1 ml of PI/RNase solution. Following incubation in the dark for 30 minutes at room temperature, flow cytometry was performed to obtain the percentage of apoptotic cells. Cell cycles were analyzed with a program combined with the FCM (Multicycle, Phoenix Flow System, San Diego, Calif.).

The subject of data set [2] is MDA-MB-436 cells. The data set is described as above. Type of data set: cell-based, human.
Description: as §1

For data set [3] the following is noted: cited from earlier work.
The subject of data set [4] is MCF7/Her18 cells. The experiment in a line: Prostaglandin E2 (PGE2) measurement. It counts as cell-based, human. As to conditions: 72-hour treatment, vectors MOI 2000 vp/cell, celecoxib 20 uM. The procedure: (§2) After a 72-hr incubation, 3 μl of arachidonic acid (1 mM) was added to the culture media to boost the PGE2 production for 30 minutes. The supernatant was collected and stored at −80° C. until PGE2 concentration was measured using an enzyme-linked immunoassay kit (Cayman Chemical, Ann Arbor, Mich.) according to the manufacturer's manual. The final results from the triplicated values were expressed as pg/ml.

For data set [5], the system named is MDA-MB-436 cells. The experiment in a line: Prostaglandin E2 (PGE2) measurement. Type of data set: cell-based, human. Particulars: 72-hour treatment, vectors MOI 1000 vp/cell, celecoxib 50 uM. The procedure: as §2

As for `Cc1ccc(-c2cc(C(F)(F)F)nn2-c2ccc(S(N)(=O)=O)cc2)cc1` [Celecoxib, 4-[5-(4-methylphenyl)-3-(trifluoromethyl)-1H-pyrazol-1-yl]benzenesulfonamide], the cell cycle effect result with MCF7/Her18 cells [1] (72-hour treatment) and in the data set with MDA-MB-436 cells [2] (72-hour treatment) was “blocked more cells at the G1 checkpoint than Ad-mda7” in each case. In addition, the “apoptosis (Annexin V/FITC, TUNEL)” value with MCF7/Her18 cells [1] (72-hr treatment) and in the data set with MDA-MB-436 cells [2] (72-hr treatment) was “promoted apoptosis” in each case. Further, the effective half-life result in data set [3] (fasted conditions) is on record as “roughly 11 hours”. For the same compound, the “time of peak plasma levels after an oral dose” value in data set [3] (in vivo, po) is on record as “roughly 3 hours”. Besides, the “delay of plasma levels with a high fat meal” value in data set [3] (in vivo) is 1 to 2 h. In addition, the “increase in total absorption with a high fat meal” value in data set [3] (in vivo) was 10-20%. In addition, the “dose excreted in feces” value in data set [3] (single dose) is listed as 57%. In addition, in data set [3] (single dose), the “dose excreted in the urine” value was 27%. Besides, the “Prostaglandin E2 production” value was 16.7^§ pg/ml in the data set with MCF7/Her18 cells [4] and 116.7^§ pg/ml in the data set on MDA-MB-436 cells [5].
